GI50 and TGI data for eight compounds are collected here from PubChem BioAssay (NCI).

Test systems include K-562 leukemia; UACC-62 melanoma; UO-31 renal; KM12 colon; BT-549 breast; SF-295 CNS; ACHN renal; HCT-15 colon; SK-MEL-5 melanoma; HCC-2998 colon.
Experiment in all cases: growth of human tumour cells (NCI), 48 h

SMILES strings stand for the structures. “And” between values parts separate entries of the source, which are not always exact repeats. Identical values can stand only once.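 Tested at 5 concentrations; 48 h exposure; 96-well plates; endpoints linearly interpolated, else capped at highest concentration. GI50: concentration for 50% inhibition of growth. TGI: concentration producing complete growth inhibition.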

On to `COc1ccc(-c2cc3cccc(OC)c3c(=O)o2)cc1OC`, for which the GI50 with K-562 leukemia is 26.3 µM; with UACC-62 melanoma it was 0.661 µM; in the experiment on UO-31 renal it was 95.4 µM; in the experiment with KM12 colon, 92.2 µM; in the experiment on BT-549 breast it was 0.636 µM; in the experiment with SF-295 CNS, 33.8 µM. Moreover, the figures for the GI50 in the experiment on ACHN renal, in the experiment on HCT-15 colon and in the experiment with SK-MEL-5 melanoma were 59.3 µM, 23.4 µM and 4.14 µM, respectively. Further, the TGI was > 100 µM in the experiment on K-562 leukemia; > 100 µM in the experiment with UACC-62 melanoma; > 100 µM in the experiment on UO-31 renal; > 100 µM in the experiment on KM12 colon; 88 µM with BT-549 breast; > 100 µM with SF-295 CNS. The TGI with ACHN renal was > 100 µM; with HCT-15 colon, > 100 µM; in the experiment with SK-MEL-5 melanoma, 40.8 µM.

As to `CS(=O)(=O)c1nccc(-c2c(-c3cccc(OCc4ccc(F)cc4)c3)nc3sccn23)n1`, the GI50 in the experiment on K-562 leukemia was 6.67 µM; in the experiment with UACC-62 melanoma, 17.5 µM; in the experiment with UO-31 renal, 2.19 µM; in the experiment with KM12 colon it was 2.95 µM; with BT-549 breast it was 8.89 µM; in the experiment with SF-295 CNS, > 100 µM. Besides, the GI50 in the experiment on ACHN renal is 50.1 µM; in the experiment on HCT-15 colon, 10.9 µM; with SK-MEL-5 melanoma, 2.51 µM; with HCC-2998 colon, 2.28 µM. Moreover, the TGI was > 100 µM in the experiment with K-562 leukemia; > 100 µM with UACC-62 melanoma; 5.57 µM in the experiment on UO-31 renal; 7.61 µM in the experiment with KM12 colon; > 100 µM with BT-549 breast; > 100 µM with SF-295 CNS. The TGI in the experiment on ACHN renal is > 100 µM; in the experiment on HCT-15 colon, > 100 µM; with SK-MEL-5 melanoma, > 24.2 µM; in the experiment on HCC-2998 colon it was 5.54 µM.

Take `COC1/C=C/O[C@@]2(C)Oc3c(C)c(O)c4c(O)c(cc(O)c4c3C2=O)NC(=O)/C(C)=C\C=C\[C@H](C)C(O)[C@@H](C)[C@@H](O)[C@@H](C)[C@H](OC(C)=O)[C@@H]1C` (some centres not stated): the GI50 is 4.47 µM in the experiment with K-562 leukemia; 14.8 µM in the experiment on UACC-62 melanoma; 12 µM in the experiment with UO-31 renal; 19 µM in the experiment with KM12 colon; 29 µM in the experiment on BT-549 breast; 16.9 µM with ACHN renal. Besides, the GI50 in the experiment with HCT-15 colon was 20.9 µM; in the experiment on SK-MEL-5 melanoma it was 25.6 µM; in the experiment with HCC-2998 colon, 15.8 µM. Moreover, the TGI with K-562 leukemia is 21.8 µM and 82.6 µM; with UACC-62 melanoma, 28 µM and 42.2 µM; in the experiment on UO-31 renal, 24.4 µM and 96.9 µM; in the experiment with KM12 colon, 35.4 µM and 97.2 µM; in the experiment on BT-549 breast it was 37.7 µM and 84.4 µM; in the experiment with SF-295 CNS, 196 µM. For the same compound, the TGI in the experiment on ACHN renal was 30.5 µM and 41.9 µM; in the experiment on HCT-15 colon, 35.1 µM and 49.8 µM; in the experiment with SK-MEL-5 melanoma, 67.6 µM and 88.1 µM; in the experiment with HCC-2998 colon, 29.2 µM and 49.2 µM.

In the case of `CCC(=O)Sc1ccccc1C(=O)Nc1ccc(Cl)cc1`, the GI50 was 3.83 µM in the experiment on K-562 leukemia; 4.38 µM in the experiment with UACC-62 melanoma; 6.53 µM in the experiment on UO-31 renal; 6.69 µM in the experiment with KM12 colon; 3.21 µM in the experiment with BT-549 breast; 5.08 µM in the experiment on SF-295 CNS. Further, the GI50 in the experiment on ACHN renal was 16.5 µM; with HCT-15 colon, 7.79 µM; with SK-MEL-5 melanoma, 4.22 µM; in the experiment with HCC-2998 colon it was 18.5 µM. The TGI in the experiment on K-562 leukemia is > 100 µM; in the experiment with UACC-62 melanoma, 24.3 µM; in the experiment with UO-31 renal it was > 100 µM; in the experiment with KM12 colon, 36.8 µM; in the experiment on BT-549 breast it was 9.89 µM; with SF-295 CNS, 25.4 µM. Besides, the TGI was 71.6 µM in the experiment on ACHN renal, > 100 µM with HCT-15 colon, 17.4 µM in the experiment on SK-MEL-5 melanoma and 47 µM in the experiment with HCC-2998 colon.

With `Cc1nc2sc(C(=O)Nc3cccc4ccccc34)c(N)c2cc1C(C)O` (configuration not stated), the GI50 in the experiment with K-562 leukemia was 0.157 µM; with UACC-62 melanoma, 0.243 µM; with UO-31 renal, 0.268 µM; in the experiment with KM12 colon it was 0.199 µM; in the experiment with BT-549 breast it was 0.264 µM; in the experiment with SF-295 CNS, 0.171 µM. Also, the GI50 in the experiment on ACHN renal is 0.284 µM; with HCT-15 colon, 0.189 µM; with SK-MEL-5 melanoma, 0.185 µM; in the experiment with HCC-2998 colon, 0.647 µM. Moreover, the TGI in the experiment with K-562 leukemia was > 50 µM; with UACC-62 melanoma, > 50 µM; in the experiment with UO-31 renal, > 48.3 µM; with KM12 colon it was > 50 µM; in the experiment with BT-549 breast, > 13.8 µM; in the experiment on SF-295 CNS, > 50 µM. Moreover, the TGI with ACHN renal is > 50 µM; with HCT-15 colon, > 50 µM; in the experiment on SK-MEL-5 melanoma, 5.81 µM; with HCC-2998 colon, > 50 µM.

On to `Cn1ncc2cc(-c3cnc(N)c(Cl)c3N3CCC4(CCNC4=O)CC3)ccc21`, for which the GI50 in the experiment with K-562 leukemia was 45.5 µM; in the experiment with UACC-62 melanoma, 30.7 µM; in the experiment on UO-31 renal, 17.7 µM; with KM12 colon, 32.3 µM; in the experiment on BT-549 breast it was 29.2 µM; in the experiment on SF-295 CNS, 31.2 µM. Besides, the GI50 was 22.7 µM with HCT-15 colon, 11.3 µM in the experiment on SK-MEL-5 melanoma and > 100 µM in the experiment with HCC-2998 colon. For the same compound, the TGI in the experiment on K-562 leukemia, in the experiment with UACC-62 melanoma, in the experiment with UO-31 renal, in the experiment on KM12 colon, with BT-549 breast and with SF-295 CNS was > 100 µM in each case. For the same compound, the results for the TGI in the experiment on HCT-15 colon, in the experiment on SK-MEL-5 melanoma and in the experiment on HCC-2998 colon were > 100 µM, 23.8 µM and > 100 µM, respectively.

For `CCOC(=O)C1NCCc2c1[nH]c1ccccc21` (configuration not stated), the TGI in the experiment with K-562 leukemia, in the experiment with UACC-62 melanoma, with KM12 colon, in the experiment on BT-549 breast, in the experiment with SF-295 CNS and with HCT-15 colon was > 10 µM throughout. The TGI with SK-MEL-5 melanoma and in the experiment with HCC-2998 colon was > 10 µM each time.

Consider `CC1=CC[C@@H]2[C@@H](CC[C@@]2(C)O)C(C)(C)[C@H]1CC[C@@H]1[C@@]2(C)CCC(=O)C(C)(C)O[C@@H]2CC[C@]1(C)O`, for which the TGI with UACC-62 melanoma was found to be 34.9 µM; in the experiment on UO-31 renal it was 49 µM; in the experiment on KM12 colon, 29.6 µM; with BT-549 breast, 57.8 µM; in the experiment with SF-295 CNS it was 48.9 µM; in the experiment with ACHN renal, 42.4 µM. In addition, the TGI in the experiment with HCT-15 colon was 34.3 µM; in the experiment with SK-MEL-5 melanoma, 39.1 µM; with HCC-2998 colon it was 40.9 µM.
